Converted amounts (≈) assume the structure as drawn. Read-outs that look alike come from different tables or passages of the source.
Key:
[1] = test system: L. donovani promastigotes; test: Anti-leishmanial screening at 100 μM, parasite viability by microscopy; assay type: cell-based, Leishmania donovani; conditions: 100 μM, 72 h, phase contrast microscope
Description: L. donovani parasites (MHOM/IN/83/AG83) were maintained in vivo in BALB/c mice. Promastigotes were routinely cultured at 22°C in medium M199 supplemented with 10% heat inactivated fetal bovine serum (FBS, HiMedia Laboratories, Mumbai, India), penicillin 100 (IU/ml), streptomycin (100 μg/ml). Log phase promastigotes were sub-cultured every 72–96 h, the inoculum being 2 × 10^6 cells/ml (Afrin et al., [2002]).
Nitrostyrine series were screened for their antileishmanial activity against L. donovani promastigotes in vitro. Promastigotes of L. donovani (2 × 10^6 cells/mL) in M199 medium were incubated at 22°C for 72 h with each compound at a concentration of 100 μM. Amphotericin B (AmB) served as reference drug, 0.2% DMSO was used as solvent control. Parasites with media alone were taken as control. Parasite viability was determined microscopically after 72 h (Islamuddin et al., [2014b]).

[2] = test system: Staphylococcus epidermidis ATCC 14990; test: Broth microdilution antibacterial susceptibility (MIC/MBC); assay type: cell-based; conditions: for MIC / MBC: Staphylococcus epidermidis
Text: (§1) One reference each of the following species was used for their in vitro susceptibility to β-nitrostyrene in this study: Staphylococcus aureus ATCC 29213, Staphylococcus epidermidis ATCC 14990, Escherichia coli ATCC 25922, Pseudomonas aeruginosa ATCC 27853, Candida albicans ATCC 90028, Candida glabrata ATCC 90030, Aspergillus fumigatus ATCC 16424 and Aspergillus niger ATCC 16404. These strains were procured from the American Type Culture Collection (ATCC, Manassas, VA, USA).
(§2) The antibacterial and antifungal activities of the β-nitrostyrenes were performed by broth microdilution methods as per the guidelines of Clinical and Laboratory Standard Institute (Wayne, [1998], [2008a],[b],[c]) by using Mueller-Hinton broth (MHB; Becton-Dickinson, Cockeysville, MD, USA) supplemented with calcium (25 mg/L) and magnesium (12.5 mg/L) for bacterial strains while as RPMI 1640 medium with L-glutamine and without sodium bicarbonate, buffered to pH 7.0 with 0.165 M 3-(N-morpholino) propanesulfonic acid (MOPS; both from Sigma) was used for fungal strains. Stock solutions were prepared in 100% dimethyl sulfoxide (DMSO; Sigma; distilled water was used for ciprofloxacin), with a final DMSO concentration of 1% (vol. per vol.) and two-fold serial dilutions were prepared in media in amounts of 100 μL per well in 96-well U-bottom microtiter plates (Tarsons, Kolkata, India) to yield twice the final concentration required for testing, which ranged from 64 to 0.12 μg/mL for β-nitrostyrenes and 16 to 0.03 μg/mL for ciprofloxacin as well as amphotericin B. Stock inoculum suspensions of the bacteria, Candida species and Aspergillus species were prepared in sterile normal saline (0.85%) containing 0.05% polysorbate 20 (NST) from overnight (3 to 5-day old for Aspergillus species) strains grown on Trypticase soy agar (TSA; Becton-Dickinson) and potato dextrose agar (Difco Laboratories, Detroit, MI, USA) respectively at 35°C. Inocula were verified for each assay by plating onto agar plates for colony enumeration. These suspensions were further diluted in the respective test medium and a 100 μl volume of this diluted inoculum was added to each well of the plate, resulting in a final inoculum concentration of approximately 5 × 10^5 CFU/mL for bacter1ia, (Wayne, [2008a]) approximately 2.5 × 10^4 CFU/ml for Candida species (Pfaller et al., [2004]) while as 0.4 × 10^4 to 5 × 10^4 CFU/mL for Aspergillus species (Wayne, [2008c]). Untreated growth control, vehicle control (DMSO) and sterility control wells were included for each isolate tested. Ciprofloxacin and amphotericin B served as the standard drug controls for bacterial and fungal strains, respectively. The microtiter plates were incubated at 35°C for 24 h for bacterial strains and 48 h for fungal strains. The plates were read visually and the minimum inhibitory concentration (MIC) was defined as the lowest concentration of test sample that prevented visible growth with respect to the growth control.
(§3) The minimum bactericidal concentration (MBC) and minimum fungicidal concentration (MFC) were determined by plating 100 μl volumes on agar plates from the wells showing no visible growth (clear MIC well). The plates were incubated as described above in MIC measurements. […] All experiments were conducted twice in duplicates on separate occasions with freshly prepared inoculums and stock solutions.

[3] = test system: Staphylococcus aureus ATCC 29213; test: as above; assay type: cell-based; conditions: Staphylococcus aureus; for MIC: broth microdilution, 35°C, 24 h, read-out: MIC, Sa ATCC 29213
Text: as §1, §2, §3

[4] = test system: Escherichia coli ATCC 25922; test: as above; assay type: cell-based; conditions: for MIC / MBC: Escherichia coli
Text: as §1, §2, §3

[5] = test system: Pseudomonas aeruginosa ATCC 27853; test: as above; assay type: cell-based; conditions: for MIC / MBC: Pseudomonas aeruginosa
Text: as §1, §2, §3

[6] = test system: Candida albicans ATCC 90028; test: Broth microdilution antifungal susceptibility (MIC/MFC); assay type: cell-based; conditions: for MIC / MFC: Candida albicans
Text: as §1, §2, §3

[7] = test system: Candida glabrata ATCC 90030; test: as above; assay type: cell-based; conditions: Nakaseomyces glabratus; for MIC: broth microdilution, 35°C, 48 h, read-out: MIC, Cg ATCC 90030
Text: as §1, §2, §3

[8] = test system: Aspergillus fumigatus ATCC 16424; test: as above; assay type: cell-based; conditions: for MIC / MFC: Aspergillus fumigatus
Text: as §1, §2, §3

[9] = test system: Aspergillus niger ATCC 16404; test: as above; assay type: cell-based; conditions: for MIC / MFC: Aspergillus niger
Text: as §1, §2, §3

[10] = broth microdilution, 35°C, 24 h
[11] = broth microdilution, 35°C, 48 h
[12] = ATCC14990, 24 h, broth microdilution, 35°C, 24 h, read-out: MIC, Se ATCC 14990
[13] = ATCC14990, ≥99.9% reduction of original inoculum, read-out: MBC, Se ATCC 14990
[14] = ATCC29213, ≥99.9% reduction of original inoculum, read-out: MBC, Sa ATCC 29213
[15] = ATCC25922, 24 h, broth microdilution, 35°C, 24 h, read-out: MIC, Ec ATCC 25922
[16] = ATCC25922, ≥99.9% reduction of original inoculum, read-out: MBC, Ec ATCC 25922
[17] = ATCC27853, 24 h, broth microdilution, 35°C, 24 h, read-out: MIC, Pa ATCC 27853
[18] = ATCC27853, ≥99.9% reduction of original inoculum, read-out: MBC, Pa ATCC 27853
[19] = ATCC90028, 48 h, broth microdilution, 35°C, 48 h, read-out: MIC, Ca ATCC 90028
[20] = ATCC90028, ≥99.9% reduction of original inoculum, read-out: MFC, Ca ATCC 90028
[21] = ATCC90030, ≥99.9% reduction of original inoculum, read-out: MFC, Cg ATCC 90030
[22] = ATCC16424, 48 h, broth microdilution, 35°C, 48 h, read-out: MIC, Af ATCC 16424
[23] = ATCC16424, ≥99.9% reduction of original inoculum, read-out: MFC, Af ATCC 16424
[24] = ATCC16404, 48 h, broth microdilution, 35°C, 48 h, read-out: MIC, An ATCC 16404
[25] = ATCC16404, ≥99.9% reduction of original inoculum, read-out: MFC, An ATCC 16404

O=[N+]([O-])/C=C/c1ccc([N+](=O)[O-])cc1 [Compound 7, 1-nitro-4-((E)-2-nitrovinyl) benzene]
Parasite viability after treatment [1]: All the parasites were found to be dead
MIC ([2]; ATCC14990, 24 h, read-out: MIC, Se ATCC 14990, broth microdilution, 35°C, 24 h): 2 to 16 µg/mL (≈ 10.3 to 82.4 µM)
MBC ([2]; ATCC14990, read-out: MBC, Se ATCC 14990): 4 µg/mL (≈ 20.6 µM)
MIC, Se ATCC 14990 [2, 10]: 4 µg/mL (≈ 20.6 µM)
MBC ([3]; ATCC29213, read-out: MBC, Sa ATCC 29213): 8 µg/mL (≈ 41.2 µM)
MIC ([4]; ATCC25922, 24 h, read-out: MIC, Ec ATCC 25922, broth microdilution, 35°C, 24 h): 16 to 32 µg/mL (≈ 82.4 to 165 µM)
MBC ([4]; ATCC25922, read-out: MBC, Ec ATCC 25922): 32 µg/mL (≈ 165 µM)
MIC, Ec ATCC 25922 [4, 10]: 16 µg/mL (≈ 82.4 µM)
MIC ([5]; ATCC27853, 24 h, read-out: MIC, Pa ATCC 27853, broth microdilution, 35°C, 24 h): 16 to 32 µg/mL (≈ 82.4 to 165 µM)
MBC ([5]; ATCC27853, read-out: MBC, Pa ATCC 27853): 32 µg/mL (≈ 165 µM)
MIC, Pa ATCC 27853 [5, 10]: 16 µg/mL (≈ 82.4 µM)
MIC ([6]; ATCC90028, 48 h, read-out: MIC, Ca ATCC 90028, broth microdilution, 35°C, 48 h): 4 to 32 µg/mL (≈ 20.6 to 165 µM)
MFC ([6]; ATCC90028, read-out: MFC, Ca ATCC 90028): 4 µg/mL (≈ 20.6 µM)
MIC, Ca ATCC 90028 [6, 11]: 4 µg/mL (≈ 20.6 µM)
MFC ([7]; ATCC90030, read-out: MFC, Cg ATCC 90030): 4 µg/mL (≈ 20.6 µM)
MIC ([8]; ATCC16424, 48 h, read-out: MIC, Af ATCC 16424, broth microdilution, 35°C, 48 h): 4 to 8 µg/mL (≈ 20.6 to 41.2 µM)
MFC ([8]; ATCC16424, read-out: MFC, Af ATCC 16424): 4 µg/mL (≈ 20.6 µM)
MIC, Af ATCC 16424 [8, 11]: 4 µg/mL (≈ 20.6 µM)
MIC ([9]; ATCC16404, 48 h, read-out: MIC, An ATCC 16404, broth microdilution, 35°C, 48 h): 2 to 4 µg/mL (≈ 10.3 to 20.6 µM)
MFC ([9]; ATCC16404, read-out: MFC, An ATCC 16404): 2 µg/mL (≈ 10.3 µM)
MIC, An ATCC 16404 [9, 11]: 2 µg/mL (≈ 10.3 µM)

O=[N+]([O-])/C=C/c1ccc(O)cc1 [Compound 16, 4-((E)-2-nitrovinyl) phenol]
MIC [2, 12]: 64 µg/mL (≈ 388 µM)
MBC [2, 13]: 64 µg/mL (≈ 388 µM)
MIC ([3]; ATCC29213, 24 h): 64 µg/mL (≈ 388 µM)
MBC [3, 14]: > 64 µg/mL
MIC [4, 15]: 64 µg/mL (≈ 388 µM)
MBC [4, 16]: > 64 µg/mL
MIC [5, 17]: > 64 µg/mL
MBC [5, 18]: > 64 µg/mL
MIC [6, 19]: 32 µg/mL (≈ 194 µM)
MFC [6, 20]: 32 µg/mL (≈ 194 µM)
MIC ([7]; ATCC90030, 48 h): 16 µg/mL (≈ 96.9 µM)
MFC [7, 21]: 16 µg/mL (≈ 96.9 µM)
MIC [8, 22]: 16 µg/mL (≈ 96.9 µM)
MFC [8, 23]: 16 µg/mL (≈ 96.9 µM)
MIC [9, 24]: 8 µg/mL (≈ 48.4 µM)
MFC [9, 25]: 16 µg/mL (≈ 96.9 µM)

O=[N+]([O-])/C=C/c1cccc(O)c1 [Compound 19, 3-((E)-2-nitrovinyl) phenol]
MIC ([2]; ATCC14990, broth microdilution, 35°C, 24 h, read-out: MIC, Se ATCC 14990): 64 µg/mL (≈ 388 µM)
MBC [2, 13]: > 64 µg/mL
MIC ([3]; ATCC29213): > 64 µg/mL
MBC [3, 14]: > 64 µg/mL
MIC ([4]; ATCC25922, broth microdilution, 35°C, 24 h, read-out: MIC, Ec ATCC 25922): > 64 µg/mL
MBC [4, 16]: > 64 µg/mL
MIC ([5]; ATCC27853, broth microdilution, 35°C, 24 h, read-out: MIC, Pa ATCC 27853): > 64 µg/mL
MBC [5, 18]: > 64 µg/mL
MIC ([6]; ATCC90028, broth microdilution, 35°C, 48 h, read-out: MIC, Ca ATCC 90028): 64 µg/mL (≈ 388 µM)
MFC [6, 20]: > 64 µg/mL
MIC ([7]; ATCC90030): 16 µg/mL (≈ 96.9 µM)
MFC [7, 21]: 16 µg/mL (≈ 96.9 µM)
MIC ([8]; ATCC16424, broth microdilution, 35°C, 48 h, read-out: MIC, Af ATCC 16424): 64 µg/mL (≈ 388 µM)
MFC [8, 23]: > 64 µg/mL
MIC ([9]; ATCC16404, broth microdilution, 35°C, 48 h, read-out: MIC, An ATCC 16404): 64 µg/mL (≈ 388 µM)
MFC [9, 25]: 64 µg/mL (≈ 388 µM)

O=[N+]([O-])/C=C/c1c[nH]c2ccccc12 [Compound 28, 3-((E)-2-nitrovinyl)-1H-indole]
MIC [2, 12]: 64 µg/mL (≈ 340 µM)
MBC [2, 13]: 64 µg/mL (≈ 340 µM)
MIC ([3]; ATCC29213, 24 h): 64 µg/mL (≈ 340 µM)
MBC [3, 14]: > 64 µg/mL
MIC [4, 15]: 64 µg/mL (≈ 340 µM)
MBC [4, 16]: > 64 µg/mL
MIC [5, 17]: > 64 µg/mL
MBC [5, 18]: > 64 µg/mL
MIC [6, 19]: 32 µg/mL (≈ 170 µM)
MFC [6, 20]: 32 µg/mL (≈ 170 µM)
MIC ([7]; ATCC90030, 48 h): 16 µg/mL (≈ 85 µM)
MFC [7, 21]: 16 µg/mL (≈ 85 µM)
MIC [8, 22]: 16 µg/mL (≈ 85 µM)
MFC [8, 23]: 16 µg/mL (≈ 85 µM)
MIC [9, 24]: 8 µg/mL (≈ 42.5 µM)
MFC [9, 25]: 16 µg/mL (≈ 85 µM)
